Experimental data: patent US8916575B2, “Quinazoline derivatives for the treatment of viral infections and further diseases” (Janssen R&D Ireland, priority 2011, dated 2014)

Key:
[1] = test system: human TLR8 mutant (dIRR2); assay: TLR8 mutant (deletion in second leucine-rich repeat) NFκB-luc cellular reporter assay; format: cell-based; parameters: unit not given here; conditions: HEK293 NFκB-luc reporter, mutant TLR8, 6 hours incubation
Protocol: (§1) The ability of compounds to activate human TLR7 and/or TLR8 was assessed in a cellular reporter assay using HEK293 cells transiently transfected with a TLR7 or TLR8 expression vector and NFκB-luc reporter construct. In one instance the TLR expression construct expresses the respective wild type sequence or a mutant sequence comprising a deletion in the second leucine-rich repeat of the TLR.
(§2) Briefly, HEK293 cells were grown in culture medium (DMEM supplemented with 10% FCS and 2 mM Glutamine). For transfection of cells in 10 cm dishes, cells were detached with Trypsin-EDTA, transfected with a mix of CMV-TLR7 or TLR8 plasmid (750 ng), NFκB-luc plasmid (375 ng) and a transfection reagent and incubated 24 hours at 37° C. in a humidified 5% CO2 atmosphere. Transfected cells were then detached with Trypsin-EDTA, washed in PBS and resuspended in medium to a density of 1.67×10^5 cells/mL. Thirty microliters of cells were then dispensed into each well in 384-well plates, where 10 μL of compound in 4% DMSO was already present. Following 6 hours incubation at 37° C., 5% CO2, the luciferase activity was determined by adding 15 μl of Steady Lite Plus substrate (Perkin Elmer) to each well and readout performed on a ViewLux ultraHTS microplate imager (Perkin Elmer). Dose response curves were generated from measurements performed in quadruplicates. Lowest effective concentrations (LEC) values, defined as the concentration that induces an effect which is at least two fold above the standard deviation of the assay, were determined for each compound.

[2] = test system: human TLR7 mutant (dIRR2); assay: TLR7 mutant (deletion in second leucine-rich repeat) NFκB-luc cellular reporter assay; format: cell-based; parameters: unit not given here; conditions: HEK293 NFκB-luc reporter, mutant TLR7, 6 hours incubation
Protocol: as §1, §2

human TLR8 = target: T1, human TLR8 (Homo sapiens, UniProt Q9NR97); assay: TLR8 wild type NFκB-luc cellular reporter assay; format: cell-based; parameters: unit not given here; conditions: HEK293 NFκB-luc reporter, 6 hours incubation
T1 construct: expressed in transfected cells; host or cells: HEK293
T1 sequence (Q9NR97 27-1041): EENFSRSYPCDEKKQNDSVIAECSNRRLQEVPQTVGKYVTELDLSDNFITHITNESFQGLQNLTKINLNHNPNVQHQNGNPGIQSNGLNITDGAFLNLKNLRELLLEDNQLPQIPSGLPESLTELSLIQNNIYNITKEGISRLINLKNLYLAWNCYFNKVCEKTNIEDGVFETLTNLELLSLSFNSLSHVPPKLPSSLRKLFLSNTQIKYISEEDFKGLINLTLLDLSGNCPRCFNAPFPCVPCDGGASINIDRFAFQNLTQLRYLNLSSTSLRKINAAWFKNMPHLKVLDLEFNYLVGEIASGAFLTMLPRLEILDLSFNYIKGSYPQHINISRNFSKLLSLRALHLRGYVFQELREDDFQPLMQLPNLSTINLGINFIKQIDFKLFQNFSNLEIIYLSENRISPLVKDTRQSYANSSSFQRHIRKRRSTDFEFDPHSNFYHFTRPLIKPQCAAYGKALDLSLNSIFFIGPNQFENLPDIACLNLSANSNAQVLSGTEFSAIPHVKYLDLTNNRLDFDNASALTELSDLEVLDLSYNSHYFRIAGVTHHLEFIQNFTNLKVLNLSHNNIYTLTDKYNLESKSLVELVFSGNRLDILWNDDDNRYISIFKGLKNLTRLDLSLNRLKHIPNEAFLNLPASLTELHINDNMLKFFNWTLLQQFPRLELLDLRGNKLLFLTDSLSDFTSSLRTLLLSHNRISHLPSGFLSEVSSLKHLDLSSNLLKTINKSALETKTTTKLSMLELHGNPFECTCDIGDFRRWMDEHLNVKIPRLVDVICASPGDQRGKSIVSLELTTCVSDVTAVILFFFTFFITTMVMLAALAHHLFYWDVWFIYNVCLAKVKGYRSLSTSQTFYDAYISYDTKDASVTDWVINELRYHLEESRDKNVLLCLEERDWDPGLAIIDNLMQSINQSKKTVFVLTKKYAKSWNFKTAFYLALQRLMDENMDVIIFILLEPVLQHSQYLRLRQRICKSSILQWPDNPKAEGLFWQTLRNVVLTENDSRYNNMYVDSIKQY
Summary of the method: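 HEK293 cells transiently transfected with wild-type or second-LRR-deletion (dIRR2) TLR7/TLR8 plasmid plus NFκB-luc, 24 h; compound added for 6 h at 37 °C. Luciferase read-out, quadruplicate dose responses. LEC = lowest concentration giving effect at least two-fold above assay SD.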

[3] = test system: HCV replicon (Huh-7 luc/neo cells); assay: Suppression of HCV replicon replication by conditioned media from PBMC; format: cell-based, HCV type 1b; conditions: Hepatitis C virus, compound concentration applied to PBMCs giving 50% reduction of replicon luciferase activity, read-out: PBMC-HUH7_EC50
Protocol: Activation of human TLR7 results in robust production of interferon by plasmacytoid dendritic cells present in human blood. The potential of compounds to induce interferon was evaluated by looking at the antiviral activity in the HCV replicon system upon incubation with conditioned media from peripheral blood mononuclear cells (PBMC). The HCV replicon assay is based on a bicistronic expression construct, as described by Lohmann et al. (Science (1999) 285: 110-113; Journal of Virology (2003) 77: 3007-15 3019) with modifications described by Krieger et al. (Journal of Virology (2001) 75: 4614-4624). The assay utilized the stably transfected cell line Huh-7 luc/neo harboring an RNA encoding a bicistronic expression construct comprising the wild type NS3-NS5B regions of HCV type 1b translated from an Internal Ribosome Entry Site (IRES) from encephalomyocarditis virus (EMCV), preceded by a reporter gene (Firefly-luciferase) and a selectable marker gene (neoR, neomycine phosphotransferase). The construct is flanked by 5′ and 3′ NTRs (non-translated regions) from HCV type 1b. Continued culture of the replicon cells in the presence of G418 (neoR) is dependent on the replication of the HCV RNA. The stably transfected replicon cells that replicate HCV RNA autonomously and to high levels, encoding inter alia luciferase, were used for profiling of the conditioned cell culture media.
Briefly, PBMCs were prepared from buffy coats of at least two donors using a standard Ficoll centrifugation protocol. Isolated PBMCs were resuspended in RPMI medium supplemented with 10% human AB serum and 2×10^5 cells/well were dispensed into 384-well plates containing compounds (70 μL total volume). After overnight incubation, 10 μL of supernatant was transferred to 384-well plates containing 2.2×10^3 replicon cells/well in 30 μL (plated the day before). Following 24 hours of incubation, replication was measured by assaying luciferase activity using 40 μL/well Steady Lite Plus substrate (Perkin Elmer) and measured with ViewLux ultraHTS microplate imager (Perkin Elmer). The inhibitory activity of each compound on the Huh7-luc/neo cells were reported as EC50 values, defined as the compound concentration applied to the PBMCs resulting in a 50% reduction of luciferase activity which in turn indicates the degree of replication of the replicon RNA on transfer of a defined amount of PBMC culture medium. Recombinant interferon α-2a (Roferon-A) was used as a standard control compound.

## CCCCNc1nc(N)nc2cc(OC)c(OC)cc12 [Compound 1]
[1]
  TLR8-dIRR2_LEC: 0.6
[2]
  TLR7-dIRR2_LEC: 0.4
Human TLR8
  TLR8-wt_LEC: 1.1
[3]
  EC50: 1900 nM

## CCCC[C@@H](CCO)Nc1nc(N)nc2cc(OC)c(OC)cc12 [Compound 3]
[1]
  TLR8-dIRR2_LEC: 2.4
[2]
  TLR7-dIRR2_LEC: 0.9
Human TLR8
  TLR8-wt_LEC: 5.5
[3]
  EC50: 600 nM
